Laboratory results: patent US20220395487A1, “RIG-I INNATE IMMUNE RECEPTOR ANTAGONISTS AND METHODS OF USING SAME” (YALE UNIVERSITY, priority 2019, published 2022)

Tests used:
RIG-I [1] = target: T1, RIG-I (Homo sapiens, UniProt O95786); test: NADH-coupled ATPase assay; assay type: biochemical; design: The native, full-length protein was expressed and purified using methods adapted from published protocols; SUMO (pET-SUMO vector; captured on Ni-NTA) (N, cleaved yes); made in house; host or cells: Rosetta II(DE3) Escherichia coli
T1 sequence (O95786 1-925): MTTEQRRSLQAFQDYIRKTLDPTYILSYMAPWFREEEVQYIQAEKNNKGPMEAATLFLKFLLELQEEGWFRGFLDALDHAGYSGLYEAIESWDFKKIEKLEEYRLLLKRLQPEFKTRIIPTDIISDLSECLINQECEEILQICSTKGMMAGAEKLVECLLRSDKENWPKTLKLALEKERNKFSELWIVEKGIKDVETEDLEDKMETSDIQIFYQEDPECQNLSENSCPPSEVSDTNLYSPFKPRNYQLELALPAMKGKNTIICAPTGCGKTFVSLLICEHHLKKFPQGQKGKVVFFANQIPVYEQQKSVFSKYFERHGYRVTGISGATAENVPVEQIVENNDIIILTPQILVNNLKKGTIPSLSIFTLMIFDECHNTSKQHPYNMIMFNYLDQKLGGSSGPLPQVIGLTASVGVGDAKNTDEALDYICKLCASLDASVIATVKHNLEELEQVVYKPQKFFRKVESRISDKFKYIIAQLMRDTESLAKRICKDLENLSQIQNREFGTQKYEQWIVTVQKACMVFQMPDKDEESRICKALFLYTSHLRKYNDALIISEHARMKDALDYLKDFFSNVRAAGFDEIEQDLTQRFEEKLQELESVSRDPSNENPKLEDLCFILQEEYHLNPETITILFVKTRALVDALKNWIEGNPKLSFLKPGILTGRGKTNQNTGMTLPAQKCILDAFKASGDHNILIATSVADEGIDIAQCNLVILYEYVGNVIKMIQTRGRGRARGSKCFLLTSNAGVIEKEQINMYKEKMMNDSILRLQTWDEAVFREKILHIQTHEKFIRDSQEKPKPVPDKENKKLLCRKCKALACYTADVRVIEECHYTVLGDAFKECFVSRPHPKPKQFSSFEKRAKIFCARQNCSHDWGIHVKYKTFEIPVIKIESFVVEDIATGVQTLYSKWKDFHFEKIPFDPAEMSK
Protocol: In this case, RIG-I was activated by a well-defined synthetic RNA hairpin duplex (SLR10-OH), which was added to a final concentration of 250 nM. A coupled assay mixture consisting of 1 mM NADH, 100 U/ml lactic dehydrogenase, 500 U/ml pyruvate kinase, 2.5 mM phosphoenol pyruvic acid was added to the sample. A 12-point serial dilution of the compound of interest was added in a DMSO vehicle such that DMSO concentrations were kept at a constant 2% over the entire drug dilution. The final concentration ranges for drug dilutions varied from compound to compound based on the potency of the small molecule in question. The dilutions covered ranges from 0 to as high as 100 μM (see association figures). Samples were incubated for at least 1 hour at RT. Reactions were initiated by the addition of a 1:1 ATP/MgCl2 mix to a final concentration of 5 mM.
The rate of ATP hydrolysis was determined indirectly by monitoring the conversion of NADH to NAD^+ that results in a loss of sample absorbance at 340 nm. Absorbance was measured over a 20 min time course using a sweeping read at 10 second intervals and a gain setting of 120 on a Biotek Synergy H1 Plate Reader. Mean kobs values were extrapolated for each time course and plotted against drug concentration, then fit to Eq. (1) to determine IC50 values. Each point was a based on two trials of three biological replicates with error bars representing the Standard deviation.

RIG-I [2] = target: T1, RIG-I; test: Absorbance titration of compound with RIG-I protein; assay type: binding; design: The native, full-length protein was expressed and purified using methods adapted from published protocols; SUMO (pET-SUMO vector; captured on Ni-NTA) (N, cleaved yes); made in house; host or cells: Rosetta II(DE3) Escherichia coli
Protocol: FIG. 1A illustrates the structure of RIG-I ΔCARDs bound to a 14 base pair RNA duplex with ADP▪BeF3 (PDBID:5E3H). FIG. 1B illustrates representative IC50 curves for active compounds. Relative activity of a compound was calculated as a fraction of “no inhibitor” measurement and plotted vs. inhibitor concentration. Each data point represents a mean of n=3 determinations±the standard deviation. FIG. 1C illustrates a representative absorption titration spectra of RIG012 binding to RIG-I. Protein concentrations are indicated in figure legend. (Inset) Stoichiometry of RIG-I binding. Fraction bound (A) is plotted against fractional change in RIG-I concentration (ΔRIG-I). Slope=0.95±0.06. […]
Although IC50 values provide a valuable metric of association for enzyme inhibitors, it was of interest to determine directly whether the lead compound, RIG012, binds to the RIG-I protein. Binding studies were facilitated by the fact that RIG012 contains a strong chromophore that absorbs in the visible range (λmax of 470 nm), making it possible to conduct classical absorbance titrations of the compound with increasing amounts of RIG-I. Upon binding to RIG-I, the 470 nm absorbance band of RIG012 undergoes a dramatic hyperchromic shift to higher intensity values, and the magnitude of this shift is proportional to the relative fraction of bound small molecule (FIG. 1C). […]

IC50 (RIG-I [1]; NADH-coupled ATPase assay, SLR10-OH activated, mean ± standard deviation, 3 measurements, read-out: IC50): 710 ± 20 nM
RIG-I ATPase inhibition, result in words (RIG-I [1]; SAR discussion of Table 1 compounds): nanomolar IC50 values
slope of fraction bound vs fractional change in RIG-I concentration (stoichiometry of RIG-I binding) (RIG-I [2]; absorbance titration at 470 nm, two independent experiments ± SD): 0.95±0.06
stoichiometry of compound:RIG-I complex (RIG-I [2]; absorbance titration, stoichiometric binding regime): 1:1 complex
Structure (SMILES): CCC1(CC)C(=O)N=C2C1=C(OCc1ccccc1)C(=O)c1ccccc12 [RIG012, 4-Benzyloxy-3,3-diethyl-2H,3H,5H-benzo[g]indole-2,5-dione]
